According to US20040157930A1, “Histone deacetylase enzyme-inhibiting derivatives of hydroxamic acid as new cytokine synthesis-inhibiting anti-inflammatory drugs” (priority 2001, published 2004):

Columns and labels:
TNFα [1] = assay: TNFα inhibition test (Moreira et al.); format: cell-based; conditions: for IC50: read-out: TNF IC50; for TNF Potency: relative potency, compound 1 = 100.00
Source text: A series of hydroxamic acid derivatives described in EP 901465 were subjected to the histone deacetylase (HDAC) and TNFα inhibition tests in accordance with the methods described by Lechner et al., Biochim Biophys. Acta 1996, 1296, 181-188 and Moreira A. L. et al., J. Exp. Med. 1993, […] respectively.

IFNγ [2] = assay: LPS-stimulated PBMC cytokine production in vitro: IFNγ (ELISA); conditions: Homo sapiens, 24 h, read-out: IFNγ IC50
Method: (§2) Interferon γ (IFNγ) was measured with a commercially available ELISA assay.

[3] = system: inflammatory cytokines induced by LPS; assay: LPS-stimulated PBMC cytokine production, summary over all cytokines; conditions: Homo sapiens, read-out: IC50, synthesis of all the inflammatory cytokines induced by LPS
Method: as §2

IFNγ [4] = assay: IFNγ synthesis by PBMCs stimulated with IL-12 and IL-18 (ELISA); format: cell-based; conditions: Homo sapiens; PBMC, IL-12 10 ng/ml + IL-18 20 ng/ml, 48 h; read-out: IFNγ (from IL-12 + IL-18) IC50
Method: Cytokine IFNγ is produced by the T lymphocytes following their stimulation by pro-inflammatory cytokines, especially IL-12 and IL-18 (Dinarello C. A. and Moldawer L. L. Proinflammatory and anti-inflammatory cytokines in rheumatoid arthritis. A primer for clinicians. 2nd Edition, Amgen Inc., 2000).
At the end, the cells were stimulated for 48 hours in the presence of the compound by simultaneous addition of recombinant IL-12 (10 ng/ml) and recombinant IL-18 (20 ng/ml). The quantity of IFNγ produced was determined with a commercial ELISA assay.

IL-1β = assay: LPS-stimulated PBMC cytokine production in vitro: IL-1β (ECL); format: cell-based; conditions: Homo sapiens, LPS 10 ng/ml, 24 h
Method: (§1) Samples of peripheral blood or buffy coats from healthy volunteers were used. […] At the end of the treatment the pro-inflammatory cytokines TNFα, IL-1β were measured by means of an electrochemiluminescence assay (ECL) using specific commercial antibodies.

TNFα [5] = assay: LPS-stimulated PBMC cytokine production in vitro: TNFα (ECL); format: cell-based; conditions: Homo sapiens, LPS 10 ng/ml, 24 h
Method: as §1

Row | SMILES | IC50 (TNFα [1]) [nM] | TNF Potency (TNFα [1]) | further results
1 | O=C(Nc1ccc(C(=O)NO)cc1)OCCC12CC3CC(CC(C3)C1)C2 [Compound 9] | 159 | 4.40 | 
2 | CCCN(CCC)Cc1ccc2cc(COC(=O)Nc3ccc(C(=O)NO)cc3)ccc2c1 [Compound 5] | 12.7 | 55.28 | 
3 | CCCCN(CCCC)Cc1ccc2cc(COC(=O)Nc3ccc(C(=O)NO)cc3)ccc2c1 [Compound 8] | 67.6 | 10.32 | 
4 | CCN(CC)Cc1ccc2cc(CCC(=O)Nc3ccc(C(=O)NO)cc3)ccc2c1 [Compound 2] | 10.2 | 68.75 | 
5 | CCN(CC)Cc1ccc2cc(CNC(=O)Nc3ccc(C(=O)NO)cc3)ccc2c1 [Compound 4] | 11.2 | 62.68 | 
6 | CC(/C=C/C(=O)NO)=C\[C@@H](C)C(=O)c1ccc(N(C)C)cc1 [TSA, trichostatin] |  |  | IC50 (IFNγ [2]): 10 nM; IC50 [3]: 50 to 200 nM; IC50 (IFNγ [4]): 490 nM; IC50 (IL-1β): 100 nM; IC50 (TNFα [5]): 50 nM

Second part, led by results:

Row | IC50 (TNFα [1]) [nM] | SMILES | TNF Potency (TNFα [1]) | further results
7 | 270 | O=C(Nc1ccc(C(=O)NO)cc1)OCCCc1ccncc1 [Compound 13] | 2.59 | 
8 | 1000 | CC[N+]([O-])(CC)Cc1ccc2cc(COC(=O)Nc3ccc(C(=O)NO)cc3)ccc2c1 [Compound 15] | 0.70 | 
9 | 159 | O=C(Nc1ccc(C(=O)NO)cc1)OCCCc1ccccc1 [Compound 10] | 4.40 | 
10 | 230 | O=C(Nc1ccc(C(=O)NO)cc1)OCCCc1ccccn1 [Compound 12] | 3.04 | 
11 | 159 | O=C(Nc1ccc(C(=O)NO)cc1)OCc1ccc2ccccc2c1 [Compound 11] | 4.40 | 
12 | 7 | CCN(CC)Cc1ccc2cc(COC(=O)Nc3ccc(C(=O)NO)cc3)ccc2c1 [Compound 1] | 100.00 | 
13 | 300 | O=C(CCCCc1ccccc1)Nc1ccc(C(=O)NO)cc1 [Compound 14] | 2.33 | 
14 | 10.3 | CCN(CC)Cc1ccc(COC(=O)Nc2ccc(C(=O)NO)cc2)c2ccccc12 [Compound 3] | 68.02 | 
15 | 50 | O=C(Nc1ccc(C(=O)NO)cc1)OCc1ccc2c(c1)OCO2 [Compound 6] | 14.00 | 
16 | 65.5 | O=C(Nc1ccc(C(=O)NO)cc1)OCC1CCc2ccccc2C1 (centres unmarked) [Compound 7] | 10.68 | 
